Measured values as given in US6958351B2, “NMDA NR2B antagonists for treatment” (Pfizer Inc, priority 2000, dated 2005).

Question: With Oc1ccc2c(c1)OCC(N1CCC(O)(c3ccc(F)cc3)CC1)[C@H]2O (stereo in doubt) as the compound, how does the melting point read?
Answer: 159 to 160 °C
